Test results published in patent US9655879B2, “Heteroarylcarboxylic acid ester derivative” (EA Pharma Co., Ltd., priority 2012, dated 2017).

Test system: Zucker Fatty rats
Assay: Evaluation of hypoglycemic action
Assay type: in vivo, rat
Conditions: gavage 3 mg/kg, HCl salt form, 2 or 4 hours after dosing
Experimental: Zucker Fatty rats (male, 11-19 week-old, Charles River Japan, Inc.) known to spontaneously develop hyperglycemia were randomly assigned to the groups (6 per group). The animals were individually housed in a polycarbonate cage and allowed to drink water freely from a watering bottle. The animals in the compound groups were gavaged with compound No. 10, 87, 19, or 69 at the dose of 3 mg/kg. These compounds were used as HCl salt form thereof, converted by the method according to Example 3, step 6 from TFA salt form thereof upon the necessity. The animals in the control group were only treated with the vehicle (0.5% methylcellulose). Animals were allowed free access to the feed (CRF-1, Oriental Yeast Co., Ltd.) during the experiment. An aspirate of the blood (6 μL) was collected from the tail vein on the time point of immediately before dosing (time 0) as well as 2, 4, and 8 hours after dosing. The blood glucose levels were determined with ACCU-CHEK Aviva (Roche Diagnostics K.K.).

SMILES	blood glucose levels compared with vehicle group
CCCN(CC(=O)O)C(=O)C(C)(C)Cc1ccc(C(=O)Oc2ccc(C(=N)N)cc2F)s1.Cl [Compound 10, N-{3-[5-(4-amidino-2-fluorophenoxycarbonyl)thiophen-2-yl]-2,2-dimethylpropionyl}-N-propylglycine hydrochloride]	significantly decreased
CCC(CC)(Cc1ccc(C(=O)Oc2ccc(C(=N)N)cc2F)s1)C(=O)N[C@@H](CC(=O)O)C(=O)O.Cl [Compound 19]	significantly decreased
CC(C)(Cc1ccc(C(=O)Oc2ccc(C(=N)N)cc2F)s1)C(=O)N[C@@H](C(=O)O)c1ccc(O)cc1 [Compound 69]	significantly decreased
